Test results taken from patent publication US20230021483A1, “[…] […] METHOD AND CLASSIFICATION OF PHARMACEUTICAL COMPONENTS BY USING TRANSCRIPTOMES” (National Institutes of Biomedical Innovation, Health and …, priority 2016, published 2023).
Values joined by “and” are separate entries in the source; they are usually repeats but may differ in a detail not shown here. Identical values can stand only once.

System: preferentially upregulated genes in LV, SP, LN
Experiment: Z-score-based differential gene expression analysis (adjuvant group- or adjuvant-associated genes, 40 module mapping, TargetMine annotation)
Assay type: in vivo, C57BL/6 mice
Details: for Adar 1425405_a_at (Group G1, Modules 20) / Adar 1434268_at (Group G1, Modules 20) / Ddx58 1436562_at (Group G1, Modules 20) / Ddx58 1456890_at (Group G1, Modules 20) / Gm9706///Isg15 1431591_s_at (Group G1, Modules 20) / Ifit1 1450783_at (Group G1, Modules 20) / Ifit3 1449025_at (Group G1, Modules 20) / Irgm1 1418825_at (Group G1, Modules 20) / Mndal 1426906_at (Group G1, Modules 20) / Rsad2 1436058_at (Group G1, Modules 20) / Shisa5 1423986_a_at (Group G1, Modules 20) / Shisa5 1437503_a_at (Group G1, Modules 20) / Stat1 1450033_a_at (Group G1, Modules 20) / Stat1 1450034_at (Group G1, Modules 20) / Tor1aip2 1435526_at (Group G1, Modules 20): IP, LV
Procedure, shortened: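 Per-sample fold-change values converted to gene-wise z-scores within each organ's data set, then triplicate z-scores summed per adjuvant. Genes with summed score >3 taken as preferentially expressed; gene groups defined by combined per-adjuvant z-score thresholds (z>1 to z>3) specific to each organ.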

[1] = liver (LV), gene group G1, module 20, individual mice x1-x3, route ID/IP/IN

In the case of CC(O)COC[C@H]1O[C@@H]2O[C@H]3[C@H](O)[C@@H](O)[C@@H](O[C@H]4[C@H](O)[C@@H](O)[C@@H](O[C@H]5[C@H](O)[C@@H](O)[C@@H](O[C@H]6[C@H](O)[C@@H](O)[C@@H](O[C@H]7[C@H](O)[C@@H](O)[C@@H](O[C@H]8[C@H](O)[C@@H](O)[C@@H](O[C@H]1[C@H](O)[C@H]2O)O[C@@H]8COCC(C)O)O[C@@H]7COCC(C)O)O[C@@H]6COCC(C)O)O[C@@H]5COCC(C)O)O[C@@H]4COCC(C)O)O[C@@H]3COCC(C)O (stereo partly drawn) [bCD, Hydroxypropyl-beta-cyclodextrin], the “Adar 1425405_a_at (Group G1, Modules 20)” value (sample x1) is reported as −0.5, the “Adar 1434268_at (Group G1, Modules 20)” value (sample x1) is reported as −0.3 and the “Ddx58 1436562_at (Group G1, Modules 20)” value (sample x1) is reported as −0.4. For the same compound, the “Ddx58 1456890_at (Group G1, Modules 20)” value (sample x1) was −0.6, the “Gm9706///Isg15 1431591_s_at (Group G1, Modules 20)” value (shortened to “Gm9706///Isg15 1431591_s_at”) (sample x1) was −0.5 and the “Ifit1 1450783_at (Group G1, Modules 20)” value (sample x1) was −0.5. For the same compound, the “Ifit3 1449025_at (Group G1, Modules 20)” value (sample x1) was −0.5, the “Irgm1 1418825_at (Group G1, Modules 20)” value (sample x1) was −0.5 and the “Mndal 1426906_at (Group G1, Modules 20)” value (sample x1) was −0.3. For the same compound, the “Rsad2 1436058_at (Group G1, Modules 20)” value (sample x1) was −0.5, the “Shisa5 1423986_a_at (Group G1, Modules 20)” value (shortened to “Shisa5 1423986_a_at”) (sample x1) was −0.6 and the “Shisa5 1437503_a_at (Group G1, Modules 20)” value (shortened to “Shisa5 1437503_a_at”) (sample x1) was −0.4. The “Stat1 1450033_a_at (Group G1, Modules 20)” value (shortened to “Stat1 1450033_a_at”) (sample x1) was −0.5, the “Stat1 1450034_at (Group G1, Modules 20)” value (sample x1) was −0.5 and the “Tor1aip2 1435526_at (Group G1, Modules 20)” value (from here on “Tor1aip2 1435526_at”) (sample x1) was −0.4. The “Adar 1425405_a_at (Group G1, Modules 20)” value (sample x2) was −0.4, the “Adar 1434268_at (Group G1, Modules 20)” value (sample x2) was −0.4 and the “Ddx58 1436562_at (Group G1, Modules 20)” value (sample x2) was −0.3. For the same compound, the “Ddx58 1456890_at (Group G1, Modules 20)” value (sample x2) was −0.4, the “Gm9706///Isg15 1431591_s_at” value (sample x2) was −0.5 and the “Ifit1 1450783_at (Group G1, Modules 20)” value (sample x2) was −0.5. The “Ifit3 1449025_at (Group G1, Modules 20)” value (sample x2) was −0.5, the “Irgm1 1418825_at (Group G1, Modules 20)” value (sample x2) was −0.6 and the “Mndal 1426906_at (Group G1, Modules 20)” value (sample x2) was −0.3. The “Rsad2 1436058_at (Group G1, Modules 20)” value (sample x2) was −0.4, the “Shisa5 1423986_a_at” value (sample x2) was −0.3 and the “Shisa5 1437503_a_at” value (sample x2) was −0.3. The “Stat1 1450033_a_at” value (sample x2) was −0.6, the “Stat1 1450034_at (Group G1, Modules 20)” value (sample x2) was −0.5 and the “Tor1aip2 1435526_at” value (sample x2) was −0.3. The “Adar 1425405_a_at (Group G1, Modules 20)” value (sample x3) was −0.3, the “Adar 1434268_at (Group G1, Modules 20)” value (sample x3) was −0.4 and the “Ddx58 1436562_at (Group G1, Modules 20)” value (sample x3) was −0.1. The “Ddx58 1456890_at (Group G1, Modules 20)” value (sample x3) was −0.3, the “Gm9706///Isg15 1431591_s_at” value (sample x3) was −0.5 and the “Ifit1 1450783_at (Group G1, Modules 20)” value (sample x3) was −0.5. For the same compound, the “Ifit3 1449025_at (Group G1, Modules 20)” value (sample x3) was −0.5, the “Irgm1 1418825_at (Group G1, Modules 20)” value (sample x3) was −0.5 and the “Mndal 1426906_at (Group G1, Modules 20)” value (sample x3) was −0.5. For the same compound, the “Rsad2 1436058_at (Group G1, Modules 20)” value (sample x3) was −0.4, the “Shisa5 1423986_a_at” value (sample x3) was −0.3 and the “Shisa5 1437503_a_at” value (sample x3) was −0.3. The “Stat1 1450033_a_at” value (sample x3) was −0.5, the “Stat1 1450034_at (Group G1, Modules 20)” value (sample x3) was −0.5 and the “Tor1aip2 1435526_at” value (sample x3) was −0.6. For the same compound, the “Z score of gene expression, Adar (probe 1425405_a_at)” value [1] was −0.4 and −0.6 and −0.7, the “Z score of gene expression, Adar (probe 1434268_at)” value [1] was −0.1 and −0.5 and −0.3 and the “Z score of gene expression, Ddx58 (probe 1436562_at)” value [1] was −0.7. For the same compound, the “Z score of gene expression, Ddx58 (probe 1456890_at)” value [1] was −0.6 and −0.7 (2×), the “Z score of gene expression, Eif2ak2 (probe 1422005_at)” value [1] was −0.4 and −0.6 and −0.5 and the “Z score of gene expression, G3bp2 (probe 1421323_a_at)” value [1] was −0.3 (2×) and −0.4. For the same compound, the “Z score of gene expression, Gm9706///Isg15 (probe 1431591_s_at)” value [1] was −0.5, the “Z score of gene expression, H2-T10///H2-T22///H2-T9 (probe 1449875_s_at)” value [1] was −0.6 (2×) and −0.8 and the “Z score of gene expression, Ifih1 (probe 1426276_at)” value [1] was −0.5 and −0.6 (2×). The “Z score of gene expression, Ifit1 (probe 1449025_at)” value [1] was −0.5, the “Z score of gene expression, Ifit1 (probe 1450783_at)” value [1] was −0.5 and the “Z score of gene expression, Irf7 (probe 1417244_a_at)” value [1] was −0.4 (2×) and −0.5. The “Z score of gene expression, Irgm1 (probe 1418825_at)” value [1] was −0.5 and −0.7 and −0.6, the “Z score of gene expression, Mndal (probe 1426906_at)” value [1] was −0.5 and −0.6 (2×) and the “Z score of gene expression, Pml (probe 1448757_at)” value [1] was −0.6 and −0.7 (2×). For the same compound, the “Z score of gene expression, Pml (probe 1456103_at)” value [1] was −0.6 (2×) and −0.5, the “Z score of gene expression, Rnf213 (probe 1455500_at)” value [1] was −0.5 and −0.6 (2×) and the “Z score of gene expression, Rsad2 (probe 1436058_at)” value [1] was −0.5. For the same compound, the “Z score of gene expression, Shisa5 (probe 1423986_a_at)” value [1] was −0.6 and −0.7 and −0.8, the “Z score of gene expression, Shisa5 (probe 1437503_a_at)” value [1] was −0.4 and −0.7 and −0.5 and the “Z score of gene expression, Stat1 (probe 1450033_a_at)” value [1] was −0.6. For the same compound, the “Z score of gene expression, Stat1 (probe 1450034_at)” value [1] was −0.5 and −0.6 (2×), the “Z score of gene expression, Tdrd7 (probe 1426716_at)” value [1] was −0.7 and −1 and −0.9 and the “Z score of gene expression, Tor1aip2 (probe 1418115_s_at)” value [1] was −0.2 and −0.7 and −0.6. For the same compound, the “Z score of gene expression, Tor1aip2 (probe 1418116_at)” value [1] was −0.4 and −0.8 and −0.6, the “Z score of gene expression, Tor1aip2 (probe 1435526_at)” value [1] was −0.4 (2×) and −0.7 and the “Z score of gene expression, Trim12a (probe 1437432_a_at)” value [1] was −0.5. The “Z score of gene expression, Uba7 (probe 1426970_a_at)” value [1] was −0.6 (2×) and −0.7.
